Test results taken from article PMC10630888, “Nuclear ERK1/2 signaling potentiation enhances neuroprotection and cognition via Importinα1/KPNA2” (EMBO Molecular Medicine, 2023).
Several values for one entry are separate records, joined by “and”; a condition that tells them apart may be missing. Identical values can stand only once.

How the values were obtained:
[1] = system: pMSK-1; assay: Striatal pMSK-1 immunohistochemistry 1 h after single injection; assay type: in vivo, mouse; details: single injection 20 mg/kg i.p., individual mice
Method: (§1) Immunohistochemistry was performed as described in Papale et al ([2016]). Briefly, 1 h after blocking in 5% normal goat serum and 0.1% Triton X‐100 solution, free‐floating sections were incubated overnight at 4°C with one of the following primary antibodies: anti‐phospho‐p44/42 MAP kinase (Thr202/Tyr204) (1:200, Cell Signaling Technology #9101), anti‐phospho–Elk‐1 (Ser383) (1:100, Cell Signaling #9181), anti‐phospho‐Kv4.2 (Thr607)‐R (1:100, Santa Cruz sc22254‐R), anti‐phospho‐MSK‐1 (1:100 Cell Signaling Technology #9595), anti‐phospho‐MEK1/2 (Ser218/222) (1:100, sc‐7995 Santa Cruz Biotechnology), c‐Fos (1:100, sc‐52 Santa Cruz Biotechnology), tyrosine Hydroxylase (monoclonal 1:1,000, Sigma Aldrich, Italy) and anti‐DARPP‐32 (H3) (1:100, Santa Cruz Biotechnology, #sc‐271111) overnight at 4°C. […]
(§2) For in vivo immunohistochemistry experiments, images were acquired from the dorsal striatum using a Leica DM IRB microscope under a 20× objective. The number of p‐ERK, p‐MSK‐1, p‐ELK, p‐MEK‐1, p‐VG K+, c‐Fos, and DARPP‐32 positive cells was counted in 2–3 consecutive sections per mouse, bilaterally and averaged across the sections using the ImageJ software by a blind investigator to the condition. Estimation of nigral cell loss was assessed by quantifying the number of TH‐immunopositive neurons of the SNc in 360 μm‐spaced sections for each animal.

[2] = system: contextual fear memory; assay: Contextual fear conditioning, rats, intra-hippocampal infusion; assay type: in vivo, rat; parameters: unit not given here; details: 2 mg/ml, 1.0 μl/side into dorsal hippocampus 20 min prior to conditioning, individual rats
Method: Lister Hooded male rats (280–350 g) were housed in pairs, in holding rooms maintained at 21°C on a reversed‐light cycle (12 h light/dark; lights on at 10:00 P.M.). All experiments were conducted in the dark period of the rats. RB5 and Scramble peptides were infused into dorsal hippocampus.
Steel double guide cannulae aimed at the dorsal hippocampus (AP ‐3.50, relative to bregma) were surgical implanted under anesthesia at least 1 week prior to behavioral training and microinfusions. Bilateral infusions with either 2 mg/ml Scramble or RB5, 20 min prior to conditioning (pH 7.0, 1.0 μl/side, rate = […]) via the chronically indwelling cannula were carried out in awake rats using a syringe pump, connected to injectors (28 gauge, projecting 1 mm beyond the guide cannulae) by polyethylene tubing.
Conditioning was performed in one of two distinct contexts. These contexts were designed to differ in a number of distinctive characteristics including size, spatial location, odor, and lighting. During the 3 min conditioning training trial, rats received a single scrambled footshock (0.5 mA for 2 s) 2 min after being placed into one of the conditioning contexts. All rats were returned to the home cages after conditioning. Retrieval tests 3 h (postretrieval short‐term memory, STM), or 2 days (long‐term memory, LTM) after recall again consisted of exposing the rat to the conditioning context for 2 min not delivering a foot shock.
For all protocols, freezing behavior served as a measure of conditioned fear to the context during the conditioning and retrieval tests.

[3] = system: ribosomal protein S6 (Ser 235/236) phosphorylation; assay: pS6 (Ser235/236) immunofluorescence in acute striatal slices with glutamate; assay type: cell-based, mouse; details: peptide 50 μM 1 h, individual slices
Method: Adult C57Bl/6 mice were decapitated after cervical dislocation and brain slices were freshly prepared as previously described in Orellana et al ([2012]) and Papale et al ([2016]). Briefly, the brains were rapidly removed from the skull, submerged in ice‐cold sucrose‐based dissecting solution, and sliced into 200 μm‐thick slices using a vibratome. […] After a rapid fixation in 4% PFA, slices were rinsed and cryoprotected overnight at 4°C in 30% sucrose solution. On the following day, slices were cut into 18 μm‐thick slices using a cryostat (Leica CM1850), mounted onto SuperFrost Plus slides (Thermo Scientific) and stored at −20°C until processing for immunohistochemistry or immunofluorescence.
Immunofluorescence was performed as described in Papale et al ([2016]). Briefly, 1 h after blocking in 5% normal goat serum, slices were incubated overnight at 4°C with the following primary antibodies: anti‐phospho (Ser10)‐acetylated (Lys14) histone H3 (1:1,000, Millipore), anti‐phospho‐S6 ribosomal protein (Ser235/236) (1:200, Cell Signaling Technology) anti‐phospho‐S6 ribosomal protein (Ser240/244) (1:200, Cell Signaling), cleaved caspase‐3 (1:200, Cell Signaling Technology), anti‐mutant Huntingtin (1:100, Developmental Studies Hybridoma Bank, University of Iowa, #MW8), and NeuN (1:1,000, Millipore). Corresponding secondary antibodies (Alexa Fluor 546 conjugated anti‐mouse (1:200, Thermo Fisher Scientific), Alexa Fluor 488 conjugated anti‐rabbit (1:500, Thermo Fisher Scientific) and Pacific Blue goat anti‐mouse (1:200, Thermo Fisher Scientific) were incubated at room temperature for 1 h. Sections stained for mutant Huntingtin were incubated with DAPI for 20 min. Sections were subsequently mounted with fluorescent mounting medium (DAKO). Single and double‐labeled images ([…]) were obtained at 40× magnification from the striatum using a laser scanning confocal microscope (Leica SP2) equipped with the corresponding lasers and appropriate filter sets to avoid the crosstalk between the fluorochromes.
In ex‐vivo and in‐vivo immunofluorescence experiments, the number of p‐S6 or p‐AcH3 immunoreactive neurons among NeuN‐positive neurons was counted in 2–3 consecutive striatal sections per mouse in four fields per section. Caspase 3‐positive cells were quantified among NeuN‐positive neurons in each slide and expressed as percentage (ratio between caspase‐3‐positive cells and total NeuN‐positive neurons) for each field acquired through the slide. The number of cells showing mutant Huntingtin inclusions were expressed as a percentage of mutant Huntingtin‐positive cells among DAPI‐positive cells.

[4] = system: pELK; assay: Striatal pELK immunohistochemistry 1 h after single injection; assay type: in vivo, mouse; details: single injection 20 mg/kg i.p., individual mice
Method: as §1, §2

| Substance | pMSK-1 positive cells in striatum [1] | Freezing behavior ([2]; LTM, 2 days) | Freezing behavior ([2]; PostUS) | Freezing behavior ([2]; PreUS) | Freezing behavior ([2]; STM, 3 h) | pS6 (Ser235/236) immunoreactive neurons among NeuN-positive neurons ([3]; then glutamate 100 μM 10 min) | pS6 (Ser235/236) immunoreactive neurons among NeuN-positive neurons ([3]; then vehicle 10 min) | pELK positive cells in striatum [4] |
| --- | --- | --- | --- | --- | --- | --- | --- | --- |
| SCR: ineffective Scramble version of RB5 containing a TAT sequence (GRKKRRQRRRPPRVGPGVPEGVGVAVFGVKEPGQTGDVGPVGE) [reference compound] | 614.286 and 328.571 and 409.524 and 680.952 and 885.714 and 485.714 and 509.524 and 319.048 and 571.429 and 461.905 and 338.095 and 209.524 and 466.667 and 700 and 519.048 | 33.3 (3×) and 58.3 and 16.7 (2×) | 16.7 (2×) and 50 (2×) and 33.3 and 0 | 0 | 33.3 (2×) and 41.7 and 16.7 and 25 and 8.3 | 26.24 and 21.87 and 18.27 and 25.45 and 28.87 and 26.8562 and 29.1865 and 24.4192 and 22.75 and 21.51 and 19.87 and 20.18 | 12.33 and 13.90 and 11.33 and 13.09 and 9.47 and 11.58 and 11.02 and 10.86 and 14.51 | 323.81 and 423.81 and 452.381 and 228.571 and 433.333 and 633.333 and 371.429 and 404.762 and 166.667 and 219.048 and 309.524 and 280.952 and 295.238 and 195.238 and 133.333 |
| GRKKRRQRRRPPQGGGGGEPRRTEGVGPGVPGEVEMVKGQPFDV [RB5, six D-amino acids, acetylated N-terminus] | selectively activated and 947.619 and 433.333 and 542.857 and 395.238 and 690.476 and 838.095 and 642.857 and 1019.05 and 728.571 and 490.476 and 328.571 and 904.762 and 1233.33 and 671.429 | markedly enhanced and 33.3 and 58.3 and 83.3 and 50 | markedly enhanced and 83.3 and 66.7 | 0 | markedly enhanced and 58.3 and 75 and 91.7 and 50 and 66.7 | blunted and 17.3997 and 19.6901 and 16.4767 and 13.6077 and 18.6740 and 17.1380 and 11.1928 and 12.0526 and 14.5710 and 10.2402 and 9.5439 and 15.5782 and 12.6217 and 14.7339 | 13.7412 and 14.9907 and 12.2371 and 13.4483 and 9.59 and 9.671 and 8.798 and 18.1241 and 17.7385 and 16.8553 and 14.4173 and 14.7976 and 16.1024 and 14.3475 | selectively activated and 980.952 and 828.571 and 933.333 and 1047.62 and 938.095 and 852.381 and 1080.95 and 1147.62 and 700 and 838.095 and 761.905 and 809.524 and 871.429 and 766.667 |
